These results are taken from patent US12679836B2, “4H-pyrrolo[3,2-c]pyridin-4-one compounds” (Bayer Aktiengesellschaft, priority 2019, dated 2026).

Assay [1] concerns the target T1, EGFR with insertion of SVD between D770 and N771 (EGFR ins SVD) (Homo sapiens, UniProt P00533, DUP768-770).
T1 construct: made in house; host or cells: Sf9 insect cells (baculovirus)
In words: Exon20-Mutant-EGFR(D770_N771insSVD) kinase assay (TR-FRET). The settings on record: 2 mM ATP, several values per example where printed. The class given is biochemical.

The target in the next assay is T2, Bub1 (Homo sapiens, UniProt O43683).
T2 construct: catalytic domain of human Bub1 (amino acids 704-1085); His6 (N); made in house; host or cells: Hi5 insect cells
In words: Bub1 TR-FRET high ATP kinase assay. It is filed as biochemical. The settings on record: Bub1 high ATP (2 mM) IC50 [mol/l], 2 mM ATP. The text has this: Bub1 High ATP Kinase Assay
Bub1-inhibitory activity of compounds of the present invention at a high ATP concentration was quantified employing the Bub1 TR-FRET high ATP kinase assay as described in the following paragraphs.
N-terminally His6-tagged recombinant catalytic domain of human Bub1 (amino acids 704-1085), expressed in insect cells (Hi5) and purified by Ni-NTA affinity chromatography and subsequent size exclusion chromatography, was used as enzyme. As substrate for the kinase reaction the biotinylated peptide biotin-Ahx-[…]—SEQ ID 7 (C-terminus in amid form) was used which can be purchased e.g. form the company Biosyntan (Berlin, Germany).

For a further assay, the target named is Ba/F3-EGFR-insSVD cells (Homo sapiens, UniProt P00533, DUP768-770, cells depend on it). In words: Ba/F3 cell survival assay (Cell Titer-Glo), EGFR-insSVD. The settings on record: without IL-3, with 10 ng/mL EGF, 48 h; read-out: BA/F3 (insSVD) IC50. The class given is cell-based. The method, then:
(§1) 293T cells from ATCC were transfected with pBABEpuro expression constructs for WT EGFR or EGFR-insSVD and pCL-Eco packaging vector using Fugene-6 transfection reagent from Promega. Plates were incubated at 37° C. for 48 h. Retrovirus was harvested by filtering the media supernatant through a 0.45 μm filter.
(§2) Ba/F3 cells purchased from DSMZ were grown in RPMI+10% FBS+10 ng/mL IL-3 and infected with filtered retroviral supernatant at a 1:2 dilution. Polybrene was added to a concentration of 8 μg/mL, plates were spun for 90 min, and incubated overnight at 37° C. 2 μg/mL puromycin was added to the infected cells 24 h after infection and cells were continually grown in the presence of puromycin and 10 ng/mL IL-3. Following stably expressing Ba/F3 cell lines were generated: Ba/F3-EGFR-WT, Ba/F3-EGFR-insSVD, (Ba/F3-vector-control).
(§3) For cell survival assays, Ba/F3 cells were grown to a density of 1-2 million cells per mL, spun down and resuspended in media without IL-3, and replated at a concentration 200,000-500,000 cells per mL. The cells ectopically expressing WT EGFR or EGFR-insSVD were plated with 10 ng/mL Millipore Culture grade EGF. The cells ectopically expressing pBABEpuro empty vector were plated with 10 ng/mL IL-3. 2 days later, cells were plated in 50 μL in a 384 well plate at a concentration of 4000 cells per well for cells assayed in the absence of IL-3 and 2000 cells per well for cells assayed in the presence of IL-3. 100 nL of compound was added to each well using a 100 nL pin head, and plates were incubated at 37° C. for 48 h.
(§4) Cell viability was measured by adding 20 μL of Cell Titer-Glo Luminescent Cell Viability Reagent diluted 1:3 in PBS. Plates were sealed with Perkin Elmer Top-Seal, inverted several times to mix, and immediately centrifuged at 1000 rpm for 2 min. Plates were incubated in low light conditions for 8-10 min and luminescence was measured.
In general terms: Cellular ATP, detected with luciferase, serves as a proxy for viable cell number.

In a further assay the target is Ba/F3-EGFR-WT cells (Homo sapiens, UniProt P00533). In words: Ba/F3 cell survival assay (Cell Titer-Glo), WT EGFR. It is filed as cell-based. Particulars: without IL-3, with 10 ng/mL EGF, 48 h; read-out: BA/F3 (wild type) IC50. The method, then: as §1, §2, §3, §4
Chain of Ba/F3-EGFR-WT cells (P00533 whole entry, change not shown): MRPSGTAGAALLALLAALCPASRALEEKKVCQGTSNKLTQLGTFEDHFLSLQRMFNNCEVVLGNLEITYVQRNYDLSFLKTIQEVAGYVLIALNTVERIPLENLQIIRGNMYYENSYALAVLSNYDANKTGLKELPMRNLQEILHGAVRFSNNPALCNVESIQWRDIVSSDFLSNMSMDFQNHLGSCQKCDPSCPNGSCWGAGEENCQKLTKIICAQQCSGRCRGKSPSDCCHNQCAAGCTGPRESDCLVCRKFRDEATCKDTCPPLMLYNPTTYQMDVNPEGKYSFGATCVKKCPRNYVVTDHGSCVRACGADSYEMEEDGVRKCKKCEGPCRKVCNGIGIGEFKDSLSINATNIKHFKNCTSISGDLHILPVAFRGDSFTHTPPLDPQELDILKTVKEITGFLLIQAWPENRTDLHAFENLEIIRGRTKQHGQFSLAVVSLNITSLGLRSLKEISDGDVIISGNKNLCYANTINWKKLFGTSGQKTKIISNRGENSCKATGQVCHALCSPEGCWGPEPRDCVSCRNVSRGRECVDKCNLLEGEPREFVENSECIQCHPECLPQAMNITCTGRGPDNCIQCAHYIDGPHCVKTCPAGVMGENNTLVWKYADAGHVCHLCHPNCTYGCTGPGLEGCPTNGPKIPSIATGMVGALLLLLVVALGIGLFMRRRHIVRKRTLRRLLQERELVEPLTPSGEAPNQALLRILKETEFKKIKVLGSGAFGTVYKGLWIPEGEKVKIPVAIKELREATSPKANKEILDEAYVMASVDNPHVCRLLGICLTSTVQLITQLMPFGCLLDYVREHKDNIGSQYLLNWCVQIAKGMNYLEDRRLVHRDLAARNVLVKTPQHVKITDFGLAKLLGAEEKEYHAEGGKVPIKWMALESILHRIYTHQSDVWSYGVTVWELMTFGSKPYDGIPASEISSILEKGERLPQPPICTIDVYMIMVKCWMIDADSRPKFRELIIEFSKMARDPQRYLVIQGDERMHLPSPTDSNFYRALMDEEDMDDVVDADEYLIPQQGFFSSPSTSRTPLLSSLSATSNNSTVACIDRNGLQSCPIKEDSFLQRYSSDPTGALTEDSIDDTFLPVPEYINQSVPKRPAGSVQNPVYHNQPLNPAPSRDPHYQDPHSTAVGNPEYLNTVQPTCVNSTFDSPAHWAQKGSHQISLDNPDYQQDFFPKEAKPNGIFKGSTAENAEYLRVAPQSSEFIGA

T2 sequence (O43683 704-1085): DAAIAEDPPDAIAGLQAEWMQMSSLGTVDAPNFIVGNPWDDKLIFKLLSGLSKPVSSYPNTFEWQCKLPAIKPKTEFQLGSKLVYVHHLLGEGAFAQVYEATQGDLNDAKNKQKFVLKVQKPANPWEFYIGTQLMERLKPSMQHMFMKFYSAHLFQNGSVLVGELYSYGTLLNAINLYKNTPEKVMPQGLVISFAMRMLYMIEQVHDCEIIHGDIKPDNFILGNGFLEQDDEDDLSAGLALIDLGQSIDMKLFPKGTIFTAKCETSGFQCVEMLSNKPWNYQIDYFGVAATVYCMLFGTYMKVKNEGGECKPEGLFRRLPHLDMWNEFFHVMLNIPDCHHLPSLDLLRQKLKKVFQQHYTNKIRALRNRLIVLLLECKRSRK
Chain of Ba/F3-EGFR-insSVD cells (P00533 with tags, fused parts or gaps DUP768-770): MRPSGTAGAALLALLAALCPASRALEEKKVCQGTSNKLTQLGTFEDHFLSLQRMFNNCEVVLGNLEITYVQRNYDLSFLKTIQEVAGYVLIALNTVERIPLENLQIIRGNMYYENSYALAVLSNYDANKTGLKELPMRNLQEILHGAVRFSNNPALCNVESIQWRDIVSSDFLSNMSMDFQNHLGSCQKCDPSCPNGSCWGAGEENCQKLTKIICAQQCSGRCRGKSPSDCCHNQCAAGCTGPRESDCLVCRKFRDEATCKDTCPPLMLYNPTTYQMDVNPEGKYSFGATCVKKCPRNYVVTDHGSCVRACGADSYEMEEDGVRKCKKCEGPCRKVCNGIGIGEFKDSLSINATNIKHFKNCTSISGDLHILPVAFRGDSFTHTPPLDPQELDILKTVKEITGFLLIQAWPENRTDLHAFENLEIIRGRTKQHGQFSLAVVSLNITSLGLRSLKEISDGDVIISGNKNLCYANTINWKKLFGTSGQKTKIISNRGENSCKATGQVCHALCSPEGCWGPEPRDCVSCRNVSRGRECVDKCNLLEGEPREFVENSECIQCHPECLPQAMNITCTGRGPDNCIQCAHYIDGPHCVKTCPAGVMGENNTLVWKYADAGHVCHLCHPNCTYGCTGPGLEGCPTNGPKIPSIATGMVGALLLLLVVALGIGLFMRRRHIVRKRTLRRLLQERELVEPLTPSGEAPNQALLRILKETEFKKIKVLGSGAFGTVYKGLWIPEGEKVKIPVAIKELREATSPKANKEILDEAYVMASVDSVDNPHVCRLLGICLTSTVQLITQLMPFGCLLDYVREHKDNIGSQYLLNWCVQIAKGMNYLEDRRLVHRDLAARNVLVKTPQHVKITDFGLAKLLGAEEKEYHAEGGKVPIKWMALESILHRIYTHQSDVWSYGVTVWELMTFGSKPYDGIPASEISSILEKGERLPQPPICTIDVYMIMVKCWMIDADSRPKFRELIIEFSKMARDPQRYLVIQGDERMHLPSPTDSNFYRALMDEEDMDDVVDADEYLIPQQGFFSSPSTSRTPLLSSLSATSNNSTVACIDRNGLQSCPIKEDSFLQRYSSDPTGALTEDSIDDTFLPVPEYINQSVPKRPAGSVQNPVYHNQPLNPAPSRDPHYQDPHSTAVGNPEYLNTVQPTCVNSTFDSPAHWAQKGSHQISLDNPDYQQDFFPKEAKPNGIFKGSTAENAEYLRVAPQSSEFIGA
T1 sequence (P00533 with tags, fused parts or gaps DUP768-770): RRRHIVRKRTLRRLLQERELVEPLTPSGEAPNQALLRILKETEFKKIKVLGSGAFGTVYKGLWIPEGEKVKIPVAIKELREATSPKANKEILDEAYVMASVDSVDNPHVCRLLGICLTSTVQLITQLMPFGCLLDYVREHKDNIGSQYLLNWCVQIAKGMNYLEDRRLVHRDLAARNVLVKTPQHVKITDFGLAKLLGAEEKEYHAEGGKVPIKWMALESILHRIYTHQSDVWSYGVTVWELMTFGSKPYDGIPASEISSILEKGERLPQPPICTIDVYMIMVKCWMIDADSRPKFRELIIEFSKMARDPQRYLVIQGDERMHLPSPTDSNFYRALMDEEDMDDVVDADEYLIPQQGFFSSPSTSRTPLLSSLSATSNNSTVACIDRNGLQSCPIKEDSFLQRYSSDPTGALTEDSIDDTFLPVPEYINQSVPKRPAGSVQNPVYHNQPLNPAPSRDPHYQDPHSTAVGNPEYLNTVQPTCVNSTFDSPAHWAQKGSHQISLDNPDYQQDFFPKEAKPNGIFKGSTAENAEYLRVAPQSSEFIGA

In general, IC50 refers to the point on the concentration scale where inhibition reaches its midpoint. Lower therefore signals higher potency. On to `Cc1c(F)cccc1Nc1c(-c2ccncc2OCC2COC(C)(C)CO2)[nH]c2c1C(=O)NCC2` (centres unmarked) [Example 38, 2-[3-[(5,5-dimethyl-1,4-dioxan-2-yl)methoxy]-4-pyridyl]-3-(3-fluoro-2-methyl-anilino)-1,5,6,7-tetrahydropyrrolo[3,2-c]pyridin-4-one], for which the “mutEGFR (D770_N771insSVD) kinase assay IC50” value (shortened to “mutEGFR”) in assay [1] came out at 0.119 nM. The molecule further yielded an IC50 at Bub1 of more than 5710 nM. Further, the figures for the GI50 on Ba/F3-EGFR-insSVD cells and on Ba/F3-EGFR-WT cells were 29.3 nM and 419 nM, respectively.
For the molecule `COc1c(Cl)cccc1Nc1c(-c2ccncc2OCCC2COCCO2)[nH]c2c1C(=O)NCC2` (single isomer, unassigned) [Example 25, 3-(3-chloro-2-methoxyanilino)-2-{3-[2-(4-dioxan-2-yl)ethoxy]pyridin-4-yl}-1,5,6,7-tetrahydro-4H-pyrrolo[3,2-c]pyridin-4-one], the “mutEGFR” value in assay [1] amounted to 0.282 nM. Also, the IC50 at Bub1 was more than 20000 nM. The GI50 was found to be 18.3 nM at Ba/F3-EGFR-insSVD cells and 349 nM on Ba/F3-EGFR-WT cells.
On to `COc1c(F)cccc1Nc1c(-c2ccncc2OCCC2COCCO2)[nH]c2c1C(=O)NCC2` (single isomer, unassigned) [Example 35, 2-(3-{2-[1,4-dioxan-2-yl]ethoxy}pyridin-4-yl)-3-(3-fluoro-2-methoxyanilino)-1,5,6,7-tetrahydro-4H-pyrrolo[3,2-c]pyridin-4-one], for which the “mutEGFR” value in assay [1] amounted to 0.0873 nM. This molecule also yielded an IC50 against Bub1 of more than 20000 nM. The GI50 on Ba/F3-EGFR-insSVD cells is 21.5 nM; at Ba/F3-EGFR-WT cells, 261 nM.
Take `CN1CCO[C@H](COc2cnccc2-c2[nH]c3c(c2Nc2cccc(F)c2CC(F)F)C(=O)NCC3)C1` [Example 41, 3-[2-(2,2-difluoroethyl)-3-fluoroanilino]-2-(3-{[(2S)-4-methylmorpholin-2-yl]methoxy}pyridin-4-yl)-1,5,6,7-tetrahydro-4H-pyrrolo[3,2-c]pyridin-4-one]: the “mutEGFR” value in assay [1] was determined as 0.291 nM. In addition, at Bub1, the IC50 is more than 20000 nM. The figures for the GI50 at Ba/F3-EGFR-insSVD cells and at Ba/F3-EGFR-WT cells were 77.5 nM and 695 nM, respectively.
As for `Cc1c(F)cccc1Nc1c(-c2ccncc2OCC2COCCO2)[nH]c2c1C(=O)NCC2` (single isomer, unassigned) [Example 49, 2-[3-(1,4-dioxan-2-ylmethoxy)-4-pyridyl]-3-(3-fluoro-2-methyl-anilino)-1,5,6,7-tetrahydropyrrolo[3,2-c]pyridin-4-one], in assay [1], the “mutEGFR” value was 0.17 nM. The molecule also returned an IC50 against Bub1 of 3930 nM. The GI50 came out at 53.6 nM at Ba/F3-EGFR-insSVD cells and 785 nM at Ba/F3-EGFR-WT cells.
Take `COc1c(Cl)cccc1Nc1c(-c2ccncc2O[C@@H](C)C2COCCO2)[nH]c2c1C(=O)NCC2` (single isomer, unassigned) [Example 58, 3-(3-chloro-2-methoxyanilino)-2-{3-[(1 S)-1-(1,4-dioxan-2-yl)ethoxy]pyridin-4-yl}-1,5,6,7-tetrahydro-4H-pyrrolo[3,2-c]pyridin-4-one]: the IC50 against Bub1 was determined as 13900 nM. For the same molecule, the GI50 on Ba/F3-EGFR-insSVD cells turned out to be 29.8 nM; on Ba/F3-EGFR-WT cells, 519 nM.
On to `COc1c(F)cccc1Nc1c(-c2ccncc2OCC2COCCO2)[nH]c2c1C(=O)NCC2` (centres unmarked) [Example 4, 2-{3-[(1,4-dioxan-2-yl)methoxy]pyridin-4-yl}-3-(3-fluoro-2-methoxyanilino)-1,5,6,7-tetrahydro-4H-pyrrolo[3,2-c]pyridin-4-one], for which the “mutEGFR” value in assay [1] worked out at 0.256 nM. The molecule also had an IC50 on Bub1 of 11300 nM. Further, the GI50 on Ba/F3-EGFR-insSVD cells was found to be 19.5 nM; at Ba/F3-EGFR-WT cells, 452 nM.
Regarding `CCc1c(Cl)cccc1Nc1c(-c2ccncc2OC[C@H]2COCCO2)[nH]c2c1C(=O)NCC2` (single isomer, unassigned) [Example 54], the “mutEGFR” value in assay [1] turned out to be 0.571 nM. In addition, the IC50 against Bub1 amounted to 994 nM. Further, the results for the GI50 at Ba/F3-EGFR-insSVD cells and at Ba/F3-EGFR-WT cells were 80.9 nM and 917 nM, respectively.
In the case of `Cc1c(Cl)cccc1Nc1c(-c2ccncc2OC[C@H]2COCCO2)[nH]c2c1C(=O)NCC2` (single isomer, unassigned) [Example 51], in assay [1], the “mutEGFR” value was found to be 0.136 nM. At Bub1, the midpoint of inhibition, the IC50, lay at 1520 nM. Further, the values for the GI50 on Ba/F3-EGFR-insSVD cells and at Ba/F3-EGFR-WT cells were 46.7 nM and 742 nM, respectively.
Consider `COc1c(Cl)cccc1Nc1c(-c2ccncc2OCC2COC(C)(C)CO2)[nH]c2c1C(=O)NCC2` (centres unmarked) [Example 30, 3-(3-chloro-2-methoxyanilino)-2-{3-[(5,5-dimethyl-1,4-dioxan-2-yl)methoxy]pyridin-4-yl}-1,5,6,7-tetrahydro-4H-pyrrolo[3,2-c]pyridin-4-one], for which the IC50 against Bub1 is more than 20000 nM. The GI50 came out at 19.3 nM at Ba/F3-EGFR-insSVD cells and 407 nM on Ba/F3-EGFR-WT cells.
For `Cc1c(Cl)cccc1Nc1c(-c2ccncc2OCC2COC(C)(C)CO2)[nH]c2c1C(=O)NCC2` (centres unmarked) [Example 44, 3-(3-chloro-2-methyl-anilino)-2-[3-[(5,5-dimethyl-1,4-dioxan-2-yl)methoxy]-4-pyridyl]-1,5,6,7-tetrahydropyrrolo[3,2-c]pyridin-4-one], the “mutEGFR” value in assay [1] amounted to 0.15 nM. On Ba/F3-EGFR-insSVD cells, the GI50 was 25.7 nM.
As to `Cc1c(Cl)cccc1Nc1c(-c2ccncc2OCC2COC(C)(C)CO2)[nH]c2c1C(=O)NCC2` (single isomer, unassigned) [Example 45, 3-(3-chloro-2-methyl-anilino)-2-[3-[(5,5-dimethyl-1,4-dioxan-2-yl)methoxy]-4-pyridyl]-1,5,6,7-tetrahydropyrrolo[3,2-c]pyridin-4-one], in assay [1], the “mutEGFR” value is 0.492 nM. In addition, the IC50 against Bub1 is more than 5710 nM. In addition, the GI50 on Ba/F3-EGFR-WT cells was 1640 nM.
`COc1c(F)cccc1Nc1c(-c2ccncc2OCCC2COCCO2)[nH]c2c1C(=O)NCC2` (single isomer, unassigned) [Example 36, 2-(3-{2-[1,4-dioxan-2-yl]ethoxy}pyridin-4-yl)-3-(3-fluoro-2-methoxyanilino)-1,5,6,7-tetrahydro-4H-pyrrolo[3,2-c]pyridin-4-one] gave an IC50 on Bub1 of 2820 nM. The GI50 at Ba/F3-EGFR-insSVD cells is 68.1 nM; on Ba/F3-EGFR-WT cells it was 845 nM.
Molecule `Cc1c(F)cccc1Nc1c(-c2ccncc2OCC2COCCO2)[nH]c2c1C(=O)NCC2` (centres unmarked) [Example 47, 2-[3-(1,4-dioxan-2-ylmethoxy)-4-pyridyl]-3-(3-fluoro-2-methyl-anilino)-1,5,6,7-tetrahydropyrrolo[3,2-c]pyridin-4-one] gave a concentration for half-maximal inhibition (IC50) on Bub1 of 5010 nM. Moreover, the GI50 is 41.6 nM on Ba/F3-EGFR-insSVD cells and 715 nM at Ba/F3-EGFR-WT cells.
`COc1c(Cl)cccc1Nc1c(-c2ccncc2OCC2COC(C)(C)CO2)[nH]c2c1C(=O)NCC2` (single isomer, unassigned) [Example 31, 3-(3-chloro-2-methoxyanilino)-2-{3-[(5,5-dimethyl-1,4-dioxan-2-yl)methoxy]pyridin-4-yl}-1,5,6,7-tetrahydro-4H-pyrrolo[3,2-c]pyridin-4-one]: the “mutEGFR” value in assay [1] was 0.133 nM.
Consider `COc1c(Cl)cccc1Nc1c(-c2ccncc2O[C@H](C)C2COCCO2)[nH]c2c1C(=O)NCC2` (single isomer, unassigned) [Example 61], for which, in assay [1], the “mutEGFR” value worked out at 0.935 nM. Besides, the figures for the GI50 at Ba/F3-EGFR-insSVD cells and at Ba/F3-EGFR-WT cells were 300 nM and 3770 nM, respectively.
As to `COc1c(F)cccc1Nc1c(-c2ccncc2OCC2CN(C)CCO2)[nH]c2c1C(=O)NCC2` (single isomer, unassigned) [Example 13, 3-(3-fluoro-2-methoxyanilino)-2-{3-[(4-methylmorpholin-2-yl)methoxy]pyridin-4-yl}-1,5,6,7-tetrahydro-4H-pyrrolo[3,2-c]pyridin-4-one], the “mutEGFR” value in assay [1] is 0.139 nM. The IC50 against Bub1 is more than 20000 nM. On Ba/F3-EGFR-WT cells, the GI50 was determined as 1520 nM.
